Consider one compound from ChEMBL document CHEMBL5584347, “Development of Nitric Oxide Releasing Oxoisoaporphines with Antidepressant Activities by Simultaneously Regulating MAO-A and SERT” (J Med Chem, 2024).

Series [1] in a line: Toxicity in C57 mouse assessed as effect on lung morphology at 5 to 10 mg/kg administered continuously for 2 weeks by H and E staining based analysis. It counts as organism-based. The following applies: in vivo, 336 h, dose 5-10 mg/kg.
Series [2] can be described thus: Toxicity in C57 mouse assessed as effect on heart morphology at 5 to 10 mg/kg administered continuously for 2 weeks by H and E staining based analysis. In kind it is organism-based. Particulars: in vivo, 336 h, dose 5-10 mg/kg.
Series [3] in a line: Toxicity in C57 mouse assessed as necrosis in spleen at 5 to 10 mg/kg administered continuously for 2 weeks by H and E staining based analysis. Particulars: in vivo, 336 h, dose 5-10 mg/kg. In kind it is organism-based.
Series [4] concerns Mus musculus. Briefly: Antidepressant activity in chronic unpredictable mild stress induced depressive C57 mouse model assessed as reduction in neuronal cell damage in hippocampus at 5 to 10 mg/kg administered continuously for 2 weeks post 5 weeks of chronic unpredictable mild stress by H and E staining based analysis. It counts as functional, organism-based. Particulars: dose 5-10 mg/kg.

Series [5] in a line: Cytotoxicity against human SH-SY5Y cells incubated for 24 hrs by MTT assay. It counts as toxicity, cell-based.
Series [6] deals with Mus musculus. Briefly: Upregulation of 5-HT level in mouse at 10 mg/kg. In kind it is functional, organism-based.
Series [7] can be described thus: Toxicity in C57 mouse assessed as effect on liver pathology at 5 to 10 mg/kg administered continuously for 2 weeks by H and E staining based analysis. It counts as organism-based. The following applies: in vivo, 336 h, dose 5-10 mg/kg.
For series [8], the system named is Mus musculus. Briefly: Antidepressant activity in chronic unpredictable mild stress induced depressive C57 mouse model assessed as increase in movement at 5 to 10 mg/kg administered continuously for 2 weeks post 5 weeks of chronic unpredictable mild stress by open field test. In kind it is functional, organism-based. The following applies: dose 5-10 mg/kg.
A short description of series [9]: Cytotoxicity against rat PC-12 cells incubated for 24 hrs by MTT assay. In kind it is toxicity, cell-based. In general terms: Tetrazolium dyes change colour on reduction, which living cells bring about.
Series [10] can be described thus: Toxicity in C57 mouse assessed as effect on heart structure at 5 to 10 mg/kg administered continuously for 2 weeks by H and E staining based analysis. It counts as organism-based. The following applies: in vivo, 336 h, dose 5-10 mg/kg.
Series [11] has as its system Danio rerio. Briefly: Antidepressant activity in reserpine-induced depressive zebrafish model assessed as reduction in immobility time at 0.5 to 1 uM preadministered with reserpine for 40 mins followed by compound administration and measured after 7 days by open field test. Particulars: dose 0.5-1 µM, time 7.0 day. It counts as functional, organism-based.
The subject of series [12] is Danio rerio. Briefly: Antidepressant activity in reserpine-induced depressive zebrafish model assessed as increase in speed of movement at 0.5 to 1 uM preadministered with reserpine for 40 mins followed by compound administration and measured after 7 days by open field test. In kind it is functional, organism-based. Particulars: dose 0.5-1 µM, time 7.0 day.
Series [13] relates to Mus musculus. The experiment in a line: Antidepressant activity in chronic unpredictable mild stress induced depressive C57 mouse model assessed as increase in number of upright movements at 5 to 10 mg/kg administered continuously for 2 weeks post 5 weeks of chronic unpredictable mild stress by open field test. It counts as functional, organism-based. The following applies: dose 5-10 mg/kg.

Series [14] concerns Mus musculus. Briefly: Antidepressant activity in chronic unpredictable mild stress induced depressive C57 mouse model assessed as increase in total distance traveled at 5 to 10 mg/kg administered continuously for 2 weeks post 5 weeks of chronic unpredictable mild stress by open field test. In kind it is functional, organism-based. The following applies: dose 5-10 mg/kg.
The nature of series [15]: Toxicity in C57 mouse assessed as effect on spleen structure at 5 to 10 mg/kg administered continuously for 2 weeks by H and E staining based analysis. Particulars: in vivo, 336 h, dose 5-10 mg/kg. In kind it is organism-based.
A short description of series [16]: Toxicity in C57 mouse assessed as effect on lung size at 5 to 10 mg/kg administered continuously for 2 weeks by H and E staining based analysis. In kind it is organism-based. Particulars: in vivo, 336 h, dose 5-10 mg/kg.
Series [17] in a line: Toxicity in C57 mouse assessed as effect in spleen pathology at 5 to 10 mg/kg administered continuously for 2 weeks by H and E staining based analysis. The following applies: in vivo, 336 h, dose 5-10 mg/kg. It counts as organism-based.
Series [18] has as its system Mus musculus. The experiment in a line: Antidepressant activity in reserpine induced depressive mouse model assessed as 5-HT level in brain at 10 mg/kg preadministered with reserpine for 3 days followed by compound addition from day 4 to 10 by LC-MS analysis (reference value: 186.46 ng/ml). In kind it is functional. The following applies: time 7 day.
A short description of series [19]: Cytotoxicity against human L02 cells incubated for 24 hrs by MTT assay. It counts as toxicity, cell-based.

The source made the active and inactive calls. The rule behind the calls is not given here.

Usually IC50 stands for the point on the concentration scale where inhibition reaches its midpoint. A high value points to a need for much substance.

Turning to `O=C1c2ccccc2-c2nccc3cc(OCCCO[N+](=O)[O-])cc1c23`, the Activity result in series [1], in [2], in series [3], in series [7], in series [10] and in [15] was “Non-Toxic” each time. In addition, the Activity entry was “Non-Toxic” in series [16], “Non-Toxic” in series [17] and 643.87 ng/mL in the series with Mus musculus [18]. Also, the result in the series on Mus musculus [4], in the series with Mus musculus [6], with Mus musculus [8], in the series on Danio rerio [11], with Danio rerio [12] and in the series with Mus musculus [13] was Active. In addition, the result in the series on Mus musculus [14] was Active. In addition, the IC50 at 24 h in series [5] is greater than 100 µM; in series [9], greater than 10 µM; in series [19], greater than 100 µM.
